{"source": "patent US7879898B1", "about": "“Hepatocyte growth factor pathway activators in chronic obstructive pulmonary disease” (Angion Biomedica Corp., priority 2006, dated 2011)", "key": {"[1]": {"tested_on": "bovine pulmonary endothelial cells (bPAEC)", "test": "3H-thymidine incorporation cell proliferation assay in bPAEC combined with c-Met siRNA", "format": "cell-based", "conditions": "serial dilutions of 5-((E)-2-thiophen-2-yl-vinyl)-1H-pyrazole or HGF; with c-Met siRNA knockdown; FIG. 1B-C", "experimental": "Compounds promote proliferation of pulmonary endothelial cells specifically through c-Met. Proliferation of pulmonary endothelial cells is one of the important pulmotrophic activities of HGF. […] First, a c-Met siRNA was used with a lipo-transfecting reagent to knock down the c-Met mRNA level in bPAEC cells, and real time RT-PCR conducted to measure the effect. The c-Met siRNA can knock down ˜90% of c-Met mRNA at a c-Met siRNA concentration as low as 50 nM. Next, the siRNA knockdown condition established from the first step was used to decrease >=90% of c-Met mRNA in bPAEC by using 100 nM of the c-Met siRNA pool, and subsequently ^3H-thymidine incorporation assay was performed in the bPAEC cells.\nShown in FIG. 1B-C, ˜5,000/well bPAEC were plated in 96 well plates. The steps as described above were continued until 24 h after adding the mixture of siRNAs and lipofectamine. Then the medium was changed with the fresh mixture of siRNAs and lipofectamine containing serial dilutions of the compound 5-((E)-2-thiophen-2-yl-vinyl)-1H-pyrazole or HGF, incubated another 24 h, 100 ul of ^3H-thymidine(1uCi/ml) was added and incubation continued overnight. Then, 100 ul/well Trypsin/EDTA was added, and ^3H-thymidine incorporation analysis was conducted using an auto-harvester and Topcount NXT v2.12 instrument."}, "[2]": {"tested_on": "bovine pulmonary endothelial cells (bPAEC)", "test": "CytoSelect 24-well cell migration assay of bPAEC", "format": "cell-based", "conditions": "24 h; multiple concentrations; FIG. 2", "experimental": "Another important pulmotrophic activity of HGF is to stimulate migration of pulmonary endothelial cells. Again, bPAEC cells were used to test if test compound, like HGF, can stimulate migration of the cells. The CytoSelect 24-well cell migration assay (Cell Biolabs, Inc.) was used to measure the migration of bPAEC cells according to the kit manual.\nCytoSelect 24-well cell migration assay kit (Cell Biolabs, Inc.) was used. Briefly, ˜300,000 cells/chamber were seeded in serum-free medium and put into a larger well containing medium with no-serum (C), serum, HGF, compound at multiple concentrations (see above), respectively, and incubated for 24 h. The medium was then aspirated from the chamber and then carefully and completely, the cells on the inner surface of the membrane were removed with cotton and the membrane washed twice. The migrated cells were stained and quantified by measuring OD at 560 nm. The mean values from bouble wells for each compound are shown."}}, "data": [{"substance": "HGF: hepatocyte growth factor (HGF; also known as scatter factor), acts through its receptor c-Met", "values": [{"measurement": "proliferation of bPAEC cells (3H-thymidine incorporation)", "setting": "[1]", "value": "promote proliferation of bPAEC cells specifically through HGF receptor c-Met"}, {"measurement": "migration of bPAEC cells (OD at 560 nM)", "setting": "[2]", "value": "stimulates bPAEC cells migration"}]}]}
